Results reported in PubChem BioAssay AID602389 (Broad Institute, 2012).
The source made the active and inactive calls.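 Rule for the calls: active = growth down by 35% or more in duplicate, reached at no more than twice the top tested dose; inactive = growth raised instead, and the rest.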

Columns and labels:
[1] = Pseudomonas aeruginosa growth inhibition with EDDHA – absorbance, plate reader, cherry-picks, dose response (AID 602389); details: P. aeruginosa growth with EDDHA, OD600, 24-30 h; at 50 µM (top of the series)
[2] = test system: P. aeruginosa growth with EDDHA, OD600, 24-30 h; experiment: as above

SMILES	growth change, negative = inhibition [1]	AC35 [2]
CCOC(=O)c1cc2c(s1)-c1c(C)cccc1OC2	6.54% (inactive)	
COc1ccc(-c2cc3ncccc3cn2)cc1	7% (inactive)	
O=C(NC1CCCC1)c1cc(Cl)ccc1[N+](=O)[O-]	7.04% (inactive)	
O=CNC1(c2ccccc2)CCCCC1	-5.85% (inactive)	
Cc1cc(NC(=O)c2c(F)c(F)c(F)c(F)c2F)no1	14.5% (inactive)	
CO/N=C/c1cn(-c2ccc(Cl)cc2)nn1	-0.342% (inactive)	
N#Cc1cc([N+](=O)[O-])ccc1N1CCCC1	-11.4% (inactive)	
Clc1ccc2scc(CN3CCCC3)c2c1	-1.16% (inactive)	
Cc1cc(S(=O)(=O)NCC2CC2)c(Cl)cc1Cl	9.74% (inactive)	
Cc1ccc(C)c(S(=O)(=O)NC2CCSC2=O)c1 (stereo not drawn)	-4.84% (inactive)	
O=C1C2C3C=CC(C4CC34)C2C(=O)N1Cc1ccco1 (stereo not drawn)	43.3% (inactive)	
Cc1ccc(S(=O)(=O)NCCC(C)C)cc1[N+](=O)[O-]	1.56% (inactive)	
Cc1ccc(S(=O)c2ccc(C)cc2)cc1	0.078% (inactive)	
CCOC(=O)CCCn1ncn2c(cc3occc32)c1=O	-2.87% (inactive)	
Cc1cc(C)nc(N(C#N)Cc2cccc([N+](=O)[O-])c2)n1	12.9% (inactive)	
CCOC(=O)CC(C#N)c1cn(C)c2ccccc12 (stereo not drawn)	-0.14% (inactive)	
N#CC(c1ccc(Cl)nn1)c1c(F)cccc1Cl (stereo not drawn)	15% (inactive)	
COc1ccccc1C(C#N)c1cccc(Cl)n1 (stereo not drawn)	5.02% (inactive)	
CSc1nnc(-c2ccc([N+](=O)[O-])cc2)o1	-9.96% (inactive)	
COC(=O)c1cc(-c2ccc(Br)cc2)on1		47 µM
O=C1C=C(c2cc(F)ccc2F)C[C@@H](c2ccc(F)cc2)C1	-1.93% (inactive)	
OC(c1cccc(Cl)c1)c1nccc2ccccc12 (stereo not drawn)	-6.69% (inactive)	
CCC(C)NS(=O)(=O)c1ccc(OC)c(Cl)c1Cl (stereo not drawn)	-10.7% (inactive)	
CCOC(=O)c1ccc(-c2ccc(CO)o2)cc1	-6.54% (inactive)	
O=S1(=O)CCOC[C@H](c2ccccc2)N1Cc1cccc(Cl)c1	7.06% (inactive)	

SMILES	growth change, negative = inhibition [1]	AC35 [2]
N#CC(c1ccc(Cl)cc1)c1cccc(Cl)n1 (stereo not drawn)		41.2 µM
Clc1ccc2scc(CN3CCCCC3)c2c1	-3.92% (inactive)	
Cc1cccc(C(C#N)c2ccc(Cl)nn2)c1 (stereo not drawn)		> 50 µM (inactive)
Cc1ccc2scc(CN3CCCC3)c2c1	-6.73% (inactive)	
N#CCn1c(C2CCCCC2)nc2ccccc2c1=O	17.3% (inactive)	
COc1ccc(N2CCN(C(=O)c3ccc(Br)o3)CC2)cc1	-4.3% (inactive)	
O=C1C2C(C(=O)N1Cc1ccco1)C1C=CC2C12CC2 (stereo not drawn)	2.46% (inactive)	
CCOC(=O)c1ccc(N2Cc3ccccc3C2=N)cc1	-6.69% (inactive)	
CCOC1=CC(=O)OC(c2ccccc2)C1 (stereo not drawn)	3.24% (inactive)	
N#CC(c1ccc(Cl)nn1)c1ccc(Cl)cc1Cl (stereo not drawn)	-0.745% (inactive)	
N#CC(c1ccccc1)c1cccc(Cl)n1 (stereo not drawn)	-11.7% (inactive)	
COc1ccc(N=C(C)C2=C(O)CSC2=O)cc1	15.6% (inactive)	
Cn1cccc1C(C#N)c1cccc(F)c1C#N (stereo not drawn)	7.38% (inactive)	
O=C(NC1CCCC1)c1cccc(Cl)c1	7.87% (inactive)	
COc1ccc(/C(C#N)=C/c2cccnc2)cc1	-1.53% (inactive)	
N#CC(c1ccc(Cl)cc1)c1ccc(Cl)nn1 (stereo not drawn)	-4.67% (inactive)	
COc1ccc(/C=C/C(=O)c2ccoc2)cc1	4.86% (inactive)	
CN(Cc1ccccc1)c1ncnc2ccc(Br)cc12	9.04% (inactive)	
CCNC(=O)COc1ccc2ccccc2c1	3.07% (inactive)	
O=C(Nc1ncc([N+](=O)[O-])s1)c1cccc([N+](=O)[O-])c1	-9.89% (inactive)	
O=[N+]([O-])c1ccc(N2CCCCC2)nc1	-2.09% (inactive)	
O=C(NC1CCS(=O)(=O)C1)c1cccc(Br)c1 (stereo not drawn)		> 50 µM (inactive)
Cc1cc(C)nc(N(C#N)Cc2ccccc2)n1		> 50 µM (inactive)
Cc1cccc(NC(=O)Nc2cc(C)on2)c1	2.69% (inactive)	
O=C(NC1CCCCCCC1)c1cccc(Cl)c1	-14.2% (inactive)	

SMILES	growth change, negative = inhibition [1]	AC35 [2]
CCOC(=O)N1CCN(c2ccc(Cl)cc2)CC1	-0.021% (inactive)	
CCCCCC1CC(COc2ccccc2)OC1=O (stereo not drawn)	-10.5% (inactive)	
CCCNS(=O)(=O)c1ccc(OC)c(Cl)c1Cl	-7.21% (inactive)	
CC(C)CCNC(=O)c1cccc(Cl)c1	-12.3% (inactive)	
CCOC(=O)c1ccc(-c2ccc(C=O)o2)cc1	7.58% (inactive)	
N#C/C(=C/c1ccco1)c1nc2ccccc2s1	18.7% (inactive)	
CC(C)N=C(NC#N)SCc1ccccc1F	-1.36% (inactive)	
O=CN(c1ccccc1)c1ccc2ccccc2c1	-5.6% (inactive)	
Cc1cc(NC(=O)c2cc([N+](=O)[O-])cc([N+](=O)[O-])c2C)no1	5.73% (inactive)	
O=C(NC1CCSC1)c1cccc(Cl)c1 (stereo not drawn)	2.12% (inactive)	
O=[N+]([O-])c1ccc(N2CCCCC2)cc1	8.85% (inactive)	
CC(C)(C)NC(=O)c1cc(Cl)ccc1[N+](=O)[O-]	12.1% (inactive)	
Cc1cc(NC(=O)c2cc([N+](=O)[O-])ccc2Cl)no1	24.8% (inactive)	
CCOc1ccc(CNC2CCCc3ccccc32)cc1 (stereo not drawn)	20.8% (inactive)	
N#CC(Sc1ccccn1)c1ccc(Cl)cc1 (stereo not drawn)	15.4% (inactive)	
COC(=O)c1cc(-c2ccc(OC)cc2)on1	-7.05% (inactive)	
O=[N+]([O-])c1ccc(N2CCCC2)nc1	9.43% (inactive)	
N#CC(c1ccc(Cl)cc1)c1ncc(C(F)(F)F)cc1Cl (stereo not drawn)	-14% (inactive)	
Cc1ccc(O)c(C(=O)/C=C/c2ccc3c(c2)OCCO3)c1	19.8% (inactive)	
COC(=O)c1ccc(NC(=S)N2CCCC2)cc1	12% (inactive)	
O=C1N[C@@H](Cc2ccccc2)[C@@H](c2ccco2)O1	16.2% (inactive)	
O=C(/C=C/c1cccs1)c1cc(Cl)ccc1O	18.9% (inactive)	
N#CC(c1cccc(Cl)c1)c1ncc(C(F)(F)F)cc1Cl (stereo not drawn)	1.76% (inactive)	
N#CC(c1ccc(Cl)nn1)c1ccccc1Cl (stereo not drawn)	-4.43% (inactive)	
CCOC(=O)c1cnc(-c2ccccc2)nc1N	-4.77% (inactive)	

SMILES	growth change, negative = inhibition [1]	AC35 [2]
O=CC1=C(c2ccccc2)Oc2ccccc2O1	-4.48% (inactive)	
CCOC(=O)/C=C(\C)Sc1cc(=O)oc2ccccc12	19.4% (inactive)	
CCOc1ccc(-n2cccc2C=O)cc1	1.21% (inactive)	
Cn1cccc1C(C#N)c1ccccc1C#N (stereo not drawn)	9.31% (inactive)	
COc1ccc(CNCc2cccc(Cl)c2)cc1	4.12% (inactive)	
COc1ccc(C(C#N)c2ccc(Cl)nn2)cc1 (stereo not drawn)	-3.93% (inactive)	
O=[N+]([O-])c1ccc(-c2cccnc2)cc1	-3.69% (inactive)	
O=C(c1cccc([N+](=O)[O-])c1)N1CC2C3C=CC(C3)C2C1 (stereo not drawn)	5.48% (inactive)	
O=C(NCC1CC1)c1cc([N+](=O)[O-])cc([N+](=O)[O-])c1	7.47% (inactive)	
Cc1ccc(C(C#N)c2ccc(Cl)nn2)cc1 (stereo not drawn)	-0.103% (inactive)	
Nc1ccc(OCc2ccccc2)cc1[N+](=O)[O-]	3.9% (inactive)	
c1ccn2cc(-c3ccc4c(c3)OCCO4)nc2c1		> 50 µM (inactive)
Clc1cccc(CNCCCSc2ncccn2)c1	-7.39% (inactive)	
COC(=O)c1ccc(/C=C(\C#N)c2ccccn2)cc1	9.37% (inactive)	
Cc1cccc(NC(=O)c2ccc3c(c2)OCCO3)n1	2.6% (inactive)	
Cn1cccc1C(=O)OCc1cc(-c2ccco2)on1	6.86% (inactive)	
COC(=O)c1ccc(OC(=O)c2cccs2)cc1	6.21% (inactive)	
N#CC1C(C#N)C2CCC1C1C2N1c1ccccc1 (stereo not drawn)	-7.23% (inactive)	
Cc1cc(NC(=O)Nc2ccccc2[N+](=O)[O-])no1		> 50 µM (inactive)
CSC1=N/C(=C\C=C\c2cccs2)C(=O)S1	13.6% (inactive)	
COC(=O)c1ccc(OC(=O)c2ccco2)cc1	-12.9% (inactive)	
O=C1C=C(c2cccc(Cl)c2)C[C@@H](c2ccc(F)cc2)C1	17.4% (inactive)	
Cc1ccc2nc(-c3ccc4c(c3)OCCO4)cn2c1	3.5% (inactive)	
